Test results reported in patent US10774052B2, “Heteroaryl compounds and uses thereof” (Celgene CAR LLC, priority 2013, dated 2020).
Where two headings read alike, the source gives them in different places.

Key:
pFGFR4 in Huh7 cells = assay: FGFR4 signaling, pFGFR4 (Huh); MSD (Method B); format: cell-based; settings: Homo sapiens
[1] = system: pFGFR4 in MDA-MB-453 cells; assay: FGFR4 signaling, pFGFR4 (MDA); Western blot (Method A), MSD (Method B), ELISA (Method C); format: cell-based; settings: Homo sapiens, Method B (MSD) for signaling EC50 determination
Protocol: The MDA-MB-453 protein concentrations were determined by a BCA Assay (Pierce, Rockford, Ill.). A sample of 50-100 μg of each lysate was separated by a 4-12% gradient (SDS-PAGE (Invitrogen)), transferred to a nitrocellulose membrane (Biorad, Hercules, Calif.), and probed with specific antibodies. Phospho-protein signals were quantitated using Odyssey Infrared Imaging (Li-Cor Biosciences).
To assess phospho-FGFR signaling, the blots were probed with anti-Phospho-FGFR (Y653/Y654) and total anti-FGFR antibodies. The phospho-FGFR signal was normalized to total FGFR expression for each sample.

[2] = Huh-7, Huh7 cells, read-out: Signaling EC50 (nM) pFGFR4 (Huh)
[3] = Huh-7, read-out: Signaling EC50 (nM) pFGFR4 (Huh)

Compound | EC50 (pFGFR4 in Huh7 cells; [2]) [nM] | other results
C=CC(=O)NC1COCC1Nc1ncc2c(n1)N(C)C(=O)N(c1ccc(OC)cc1)C2 (stereo not drawn) [Compound I-209] | > 1000 | 
C=CC(=O)Nc1nn(C)cc1Nc1ncc2c(n1)N(C)C(=O)N(c1c(Cl)c(OC)cc(OC)c1Cl)C2 [Compound I-117] | < 100 | EC50 ([1]; MDA-MB-453 cells): < 100 nM
C=CC(=O)NC1CS(=O)(=O)CC1Nc1ncc2c(n1)N(C)C(=O)N(c1c(Cl)c(OC)cc(OC)c1Cl)C2 (stereo not drawn) [Compound I-200] | 101 to 500 | 
C=CC(=O)NC1CN(c2ccncn2)CC1Nc1ncc2c(n1)N(C)C(=O)N(c1c(Cl)c(OC)cc(OC)c1Cl)C2 (stereo not drawn) [Compound I-201] | 101 to 500 | 
C=CC(=O)NC1CCCCC1Nc1ncc2c(n1)N(CC(F)F)C(=O)N(c1cc(OC)cc(OC)c1Cl)C2 (racemic) [Compound I-107] | > 1000 | EC50 ([1]; MDA-MB-453, MDA-MB-453 cells): 501 to 999 nM
C=CC(=O)NC1CCCCC1Nc1ncc2c(n1)N(Cc1ccn(C)c(=O)c1)C(=O)N(c1c(Cl)c(OC)cc(OC)c1Cl)C2 (stereo not drawn) [Compound I-132] | 101 to 500 | EC50 ([1]; MDA-MB-453 cells): 101 to 500 nM
C=CC(=O)N[C@H]1COC[C@H]1Nc1ncc2c(n1)N(C)C(=O)N(c1c(Cl)c(OC)cc(OC)c1Cl)C2 [Compound I-186] | < 100 | EC50 ([1]; MDA-MB-453, MDA-MB-453 cells): < 100 nM
C=CC(=O)Nc1ccccc1Nc1ncc2c(n1)N(CC1CC1)C(=O)N(c1cc(OC)cc(OC)c1)C2 [Compound I-98] | < 100 | EC50 ([1]; MDA-MB-453 cells): < 100 nM
C=CC(=O)Nc1cc(C(F)(F)F)ccc1Nc1ncc2c(n1)N(Cc1ccccc1)C(=O)N(c1c(Cl)c(OC)cc(OC)c1Cl)C2 [Compound I-6] | 101 to 500 | 
C=CC(=O)Nc1cc(F)ccc1Nc1ncc2cc(-c3c(Cl)c(OC)cc(OC)c3Cl)c(=O)n(C)c2n1 [Compound I-245] | < 100 | 
C=CC(=O)NC1CN(c2ccn(C)n2)CC1Nc1ncc2c(n1)N(C)C(=O)N(c1c(Cl)c(OC)cc(OC)c1Cl)C2 (stereo not drawn) [Compound I-204] | < 100 | 
C=CC(=O)NC1COCC1Nc1ncc2c(n1)N(C)C(=O)N(c1cc(C(=O)Nc3cccc(C(C)(C)C#N)c3)ccc1Cl)C2 (stereo not drawn) [Compound I-246] | 101 to 500 | 
C=CC(=O)N[C@H]1CCCC[C@H]1Nc1ncc2c(n1)N(C)C(=O)N(c1c(Cl)c(OC)c(OC)c(OC)c1Cl)C2 [Compound I-221] | > 1000 | 
C=CC(=O)N[C@H]1CCCC[C@H]1Nc1ncc2c(n1)N(C)C(=O)N(c1c(F)c(OC)cc(OC)c1Br)C2 [Compound I-228] | 101 to 500 | 
C=CC(=O)NC1COCC1Nc1ncc2c(n1)N(Cc1cnn(C)c1)C(=O)N(c1c(Cl)c(OC)cc(OC)c1Cl)C2 (stereo not drawn) [Compound I-213] | < 100 | 
C=CC(=O)NC1COCC1Nc1ncc2c(n1)N(CC1CC1)C(=O)N(c1c(Cl)c(OC)cc(OC)c1Cl)C2 (stereo not drawn) [Compound I-212] | < 100 | 
C=CC(=O)Nc1cc(C)ccc1Nc1ncc2cc(-c3c(Cl)c(OC)cc(OC)c3Cl)c(=O)n(C)c2n1 [Compound I-243] | < 100 | 
C=CC(=O)NC1COCC1Nc1ncc2c(n1)N(C)C(=O)N(c1cc(C(=O)Nc3cccc(C(C)(C)C)c3)ccc1Cl)C2 (stereo not drawn) [Compound I-247] | < 100 | 
C=CC(=O)Nc1cc(OC)ccc1Nc1ncc2cc(-c3c(Cl)c(OC)cc(OC)c3Cl)c(=O)n(C)c2n1 [Compound I-242] | < 100 | 
C=CC(=O)Nc1ccccc1Nc1ncc2cc(-c3c(Cl)c(OC)cc(OC)c3Cl)c(=O)n(C)c2n1 [Compound I-244] | < 100 | 

Compound | EC50 (pFGFR4 in Huh7 cells; [2]) [nM] | other results
C=CC(=O)NC1COCC1Nc1ncc2c(n1)N(C)C(=O)N(c1c(F)c(OC)cc(OC)c1F)C2 (stereo not drawn) [Compound I-198] | < 100 | 
C=CC(=O)NC1COCC1Nc1ncc2c(n1)N(Cc1cscn1)C(=O)N(c1c(Cl)c(OC)cc(OC)c1Cl)C2 (stereo not drawn) [Compound I-210] | < 100 | 
C=CC(=O)NC1CCCCC1Nc1ncc2c(n1)N(C)C(=O)N(c1c(Cl)c(OC)cc(OC)c1Cl)C2 (racemic) [Compound I-19] |  | EC50 (pFGFR4 in Huh7 cells; [3]): 101 to 500 nM
C=CC(=O)N[C@H]1CCCC[C@H]1Nc1ncc2cc(-c3c(Cl)c(OC)cc(OC)c3Cl)c(=O)n(C)c2n1 [Compound I-223] |  | EC50 (pFGFR4 in Huh7 cells; [3]): < 100 nM
C=CC(=O)N[C@H]1CCCC[C@H]1Nc1ncc2c(n1)N(C)C(=O)N(c1c(Cl)c(OC)cc(OC)c1Cl)C2 [Compound I-95] |  | EC50 (pFGFR4 in Huh7 cells; [3]): 101 to 500 nM
C=CC(=O)NC1COCC1Nc1ncc2c(n1)N(C)C(=O)N(c1c(Cl)c(OC)c(OC)c(OC)c1Cl)C2 (stereo not drawn) [Compound I-208] | > 1000 | 
C=CC(=O)NC1COCC1Nc1ncc2c(n1)N(CC)C(=O)N(c1c(Cl)c(OC)cc(OC)c1Cl)C2 (stereo not drawn) [Compound I-217] | < 100 | 
C=CC(=O)NC1COCC1Nc1ncc2c(n1)N(Cc1cn[nH]c1)C(=O)N(c1c(Cl)c(OC)cc(OC)c1Cl)C2 (stereo not drawn) [Compound I-214] | 101 to 500 | 
C=CC(=O)NC1COCC1Nc1ncc2c(n1)N(C)C(=O)N(c1cc(OC)c(OC)c(OC)c1)C2 (stereo not drawn) [Compound I-207] | > 1000 | 
C=CC(=O)NC1COCC1Nc1ncc2c(n1)N(Cc1cc[nH]n1)C(=O)N(c1c(Cl)c(OC)cc(OC)c1Cl)C2 (stereo not drawn) [Compound I-216] | 101 to 500 | 
C=CC(=O)N[C@H]1CCCC[C@H]1Nc1ncc2c(n1)N(C)C(=O)N(c1c(Cl)c(OCC)cc(OCC)c1Cl)C2 [Compound I-219] | 501 to 999 | 
C=CC(=O)NC1CCCCC1Nc1ncc2c(n1)N(Cc1cccc(NC(=O)CC)c1)C(=O)N(c1c(Cl)c(OC)cc(OC)c1Cl)C2 (racemic) [Compound I-8] | 101 to 500 | 
C=CC(=O)Nc1ccccc1Nc1ncc2c(n1)N(C)C(=O)N(c1cc(OC)cc(OC)c1Cl)C2 [Compound I-75] |  | EC50 ([1]; MDA-MB-453 cells): < 100 nM
C=CC(=O)Nc1ccccc1Nc1ncc2c(n1)N(Cc1ccc(Cl)c(OC)c1)C(=O)N(c1c(Cl)c(OC)cc(OC)c1Cl)C2 [Compound I-24] |  | EC50 ([1]; MDA-MB-453 cells): < 100 nM
C=CC(=O)N[C@@H]1CCCC[C@@H]1Nc1ncc2c(n1)N(Cc1ccccc1)C(=O)N(c1c(Cl)c(OC)cc(OC)c1Cl)C2 [Compound I-66] |  | EC50 ([1]; MDA-MB-453 cells): > 1000 nM
C=CC(=O)NC1COCC1Nc1ncc2c(n1)N(C)C(=O)N(c1c(F)c(OC)cc(OC)c1Cl)C2 (stereo not drawn) [Compound I-206] | < 100 | 
C=CC(=O)Nc1ccccc1Nc1ncc2c(n1)N(C)C(=O)N(c1cc(OC)cc(OC)c1F)C2 [Compound I-108] |  | EC50 ([1]; MDA-MB-453 cells): < 100 nM
C=CC(=O)Nc1ccccc1Nc1ncc2c(n1)N(C1CCN(CC)CC1)C(=O)N(c1cc(OC)cc(OC)c1)C2 [Compound I-80] |  | EC50 (pFGFR4 in Huh7 cells; [3]): > 1000 nM
C=CC(=O)N[C@H]1CCCC[C@H]1Nc1ncc2c(n1)N(Cc1cnn(C)c1)C(=O)N(c1c(Cl)c(OC)cc(OC)c1Cl)C2 [Compound I-148] |  | EC50 ([1]; MDA-MB-453 cells): < 100 nM
C=CC(=O)N(C)C1COCC1Nc1ncc2c(n1)N(C)C(=O)N(c1c(Cl)c(OC)cc(OC)c1Cl)C2 (stereo not drawn) [Compound I-218] | > 1000 | 

Compound | EC50 (pFGFR4 in Huh7 cells; [2]) [nM] | other results
C=CC(=O)Nc1ccccc1Nc1ncc2c(n1)N(CC(=O)OC(C)(C)C)C(=O)N(c1cc(OC)cc(OC)c1)C2 [Compound I-96] |  | EC50 ([1]; MDA-MB-453, MDA-MB-453 cells): > 1000 nM
C=CC(=O)N[C@H]1CCCC[C@H]1Nc1ncc2c(n1)N(C)C(=O)N(c1cc(OC)c(OC)c(OC)c1)C2 [Compound I-220] | > 1000 | 
C=CC(=O)Nc1cc(OCCOC)ccc1Nc1ncc2c(n1)N(Cc1ccccc1)C(=O)N(c1cc(OC)cc(OC)c1)C2 [Compound I-14] |  | EC50 ([1]; MDA-MB-453 cells): 101 to 500 nM
C=CC(=O)Nc1ccccc1Nc1ncc2c(n1)N(C)C(=O)N(c1ccccc1)C2 [Compound I-38] |  | EC50 ([1]; MDA-MB-453, MDA-MB-453 cells): > 1000 nM
C=CC(=O)Nc1cc(N2CCCCC2)ccc1Nc1ncc2c(n1)N(C)C(=O)N(c1cc(OC)cc(OC)c1)C2 [Compound I-31] |  | EC50 ([1]; MDA-MB-453 cells): 101 to 500 nM
C=CC(=O)Nc1cc(N2CCN(C(=O)OC(C)(C)C)CC2)ccc1Nc1ncc2c(n1)N(C)C(=O)N(c1c(Cl)c(OC)cc(OC)c1Cl)C2 [Compound I-62] |  | EC50 ([1]; MDA-MB-453 cells): < 100 nM
C=CC(=O)Nc1ccccc1Nc1ncc2c(n1)N(Cc1ccc(F)c(N)c1)C(=O)N(c1c(Cl)c(OC)cc(OC)c1Cl)C2 [Compound I-144] |  | EC50 ([1]; MDA-MB-453 cells): < 100 nM
C=CC(=O)Nc1ccccc1Nc1ncc2c(n1)N(C1CCNCC1)C(=O)N(c1cc(OC)cc(OC)c1)C2 [Compound I-81] |  | EC50 (pFGFR4 in Huh7 cells; [3]): > 1000 nM
C=CC(=O)NC1COCC1Nc1ncc2c(n1)N(Cc1ccn(C)n1)C(=O)N(c1c(Cl)c(OC)cc(OC)c1Cl)C2 (stereo not drawn) [Compound I-215] | < 100 | 
C=CC(=O)Nc1cc(N2CCN(C(=O)CCCC(=O)NCCCOCCOCCOCCCNC(=O)CCCC[C@@H]3SC[C@@H]4NC(=O)N[C@@H]43)CC2)ccc1Nc1ncc2c(n1)N(C)C(=O)N(c1c(Cl)c(OC)cc(OC)c1Cl)C2 [Compound I-127] |  | EC50 (pFGFR4 in Huh7 cells; [3]): 101 to 500 nM
CCC(=O)Nc1ccccc1Nc1ncc2c(n1)N(Cc1ccccc1)C(=O)N(c1c(Cl)c(OC)cc(OC)c1Cl)C2 [Compound I-236] |  | EC50 ([1]; MDA-MB-453, MDA-MB-453 cells): 101 to 500 nM
C=CC(=O)N[C@H]1CCCC[C@H]1Nc1ncc2c(n1)N(Cc1cscn1)C(=O)N(c1c(Cl)c(OC)cc(OC)c1Cl)C2 [Compound I-114] |  | EC50 (pFGFR4 in Huh7 cells; [3]): 101 to 500 nM
C=CC(=O)Nc1ccccc1Nc1ncc2c(n1)N(Cc1csc(C)n1)C(=O)N(c1c(Cl)c(OC)cc(OC)c1Cl)C2 [Compound I-134] |  | EC50 ([1]; MDA-MB-453 cells): < 100 nM
CCC(=O)Nc1ccccc1Nc1ncc2c(n1)N(C)C(=O)N(c1c(Cl)c(OC)cc(OC)c1Cl)C2 [Compound I-235] |  | EC50 ([1]; MDA-MB-453, MDA-MB-453 cells): 501 to 999 nM
C=CC(=O)N[C@H]1CCCC[C@H]1Nc1ncc2c(n1)N(Cc1ccccc1)C(=O)N(c1c(Cl)c(OC)cc(OC)c1Cl)C2 [Compound I-82] |  | EC50 ([1]; MDA-MB-453 cells): < 100 nM
C=CC(=O)Nc1cc(C2CCN(CC)CC2)ccc1Nc1ncc2c(n1)N(C)C(=O)N(c1cc(OC)cc(OC)c1)C2 [Compound I-54] |  | EC50 ([1]; MDA-MB-453 cells): 101 to 500 nM
C=CC(=O)NC1COCC1Nc1ncc2c(n1)N(C)C(=O)N(c1c(Cl)c(OCC)cc(OCC)c1Cl)C2 (stereo not drawn) [Compound I-205] | 101 to 500 | 
C=CC(=O)Nc1ccccc1Nc1ncc2c(n1)N(Cc1cccc(OC)c1)C(=O)N(c1c(Cl)c(OC)cc(OC)c1Cl)C2 [Compound I-28] |  | EC50 ([1]; MDA-MB-453 cells): < 100 nM
